Molecular target: Jack bean urease (Canavalia ensiformis, UniProt P07374)
Details: substrate urea; phosphate buffer pH […]; […]°C; […] min

Chain of Jack bean urease (P07374 whole entry, looked up): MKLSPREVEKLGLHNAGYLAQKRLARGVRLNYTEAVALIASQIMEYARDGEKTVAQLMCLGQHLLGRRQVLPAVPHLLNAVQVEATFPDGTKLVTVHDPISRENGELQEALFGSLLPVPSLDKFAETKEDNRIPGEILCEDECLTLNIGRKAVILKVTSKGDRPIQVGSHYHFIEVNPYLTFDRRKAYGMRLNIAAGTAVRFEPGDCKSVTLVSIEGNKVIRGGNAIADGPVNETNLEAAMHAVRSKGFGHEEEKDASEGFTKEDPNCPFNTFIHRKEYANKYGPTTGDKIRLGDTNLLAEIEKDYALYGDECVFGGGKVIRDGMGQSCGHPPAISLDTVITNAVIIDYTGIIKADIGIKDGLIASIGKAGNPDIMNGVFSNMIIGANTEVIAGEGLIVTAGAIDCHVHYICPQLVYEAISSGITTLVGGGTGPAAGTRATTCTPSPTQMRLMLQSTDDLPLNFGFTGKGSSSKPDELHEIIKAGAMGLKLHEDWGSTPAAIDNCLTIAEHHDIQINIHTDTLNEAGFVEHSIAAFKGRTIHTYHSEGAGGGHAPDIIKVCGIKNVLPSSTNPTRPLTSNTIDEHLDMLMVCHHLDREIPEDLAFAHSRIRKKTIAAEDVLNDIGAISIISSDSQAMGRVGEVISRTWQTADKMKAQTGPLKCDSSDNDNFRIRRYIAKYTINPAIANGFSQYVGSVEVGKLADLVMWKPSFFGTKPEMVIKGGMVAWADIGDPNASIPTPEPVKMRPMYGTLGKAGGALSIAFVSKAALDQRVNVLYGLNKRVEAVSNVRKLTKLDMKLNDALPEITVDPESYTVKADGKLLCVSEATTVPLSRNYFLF

Compound: NC(N)=S [Thiourea]
- Urease IC50 ± SEM: 1.58 ± 0.95 µg/mL

Source: paper PMC9307329, “Enzymes Inhibition and Antioxidant Potential of Medicinal Plants Growing in Oman” (BioMed Research International, 2022)
